The source of these data is patent publication US7125854B2, “Bicyclic carbohydrates as antiprotozoal bioactive for the treatment of infections caused by parasites” (Kemin Pharma B.V.B.A., priority 2003, dated 2006).

pIC50: −log10 of the molar value. Like-named read-outs stand apart in the source and are kept apart here. Some results are limits rather than exact numbers.

The test system of series [1] is P. falciparum. The series can be described thus: Screening against P. falciparum (Table 2). It is filed as cell-based, Plasmodium falciparum.
The test system of series [2] is P. falciparum. Briefly: WHO screening against P. falciparum (Table 1). Format: cell-based. As to conditions: Plasmodium falciparum; Table 1, WHO screening. The source says:
(§1) Compound A1 was screened against Trypanosoma brucei by World Health Organization (Switzerland) using its established screening service.

The subject of series [3] is T. cruzi. The series can be described thus: WHO screening against T. cruzi (Table 1). Format: cell-based, Trypanosoma cruzi. Conditions: Table 1, WHO screening.
Series [4] relates to sleeping sickness. Conditions: cited from earlier work.
Series [5] deals with T. brucei rhodesiense. The series can be described thus: Screening against T. brucei rhodesiense (Table 2). Format: cell-based, Trypanosoma brucei rhodesiense.
In series [6] the test system is Leishmania donovani MHOM/ET/67/L82. Briefly: Leishmania donovani amastigotes in primary peritoneal mouse macrophages, parasite growth after 96 hours. Format: cell-based. Conditions: 96 hours of incubation, read-out: IC50 L. donovani. The procedure: One strain of Leishmania spp. (Leishmania.donovani MHOM/ET/67/L82) is used. The strain is maintained in the hamster. Amastigotes are collected from the spleen of an infected hamster and spleen parasite burden is assessed using the Stauber technique or amastigotes are counted in the haemocytometer after 1:100 dilution in trypan blue.
Primary peritoneal mouse (CDI or NMRI) macrophages are collected 1 day after a macrophage production stimulation with an i.p injection of 2 ml of 2% starch in distilled water. All cultures and assays are conducted at 37° C. under an atmosphere of 5% CO2. Ten mg/ml compound stock solutions are prepared as advised by the supplier, otherwise dissolved in 100% DMSO. Stock solutions are kept at 4° C. for a maximum of 2 weeks, thereafter at −20° C. The compounds are pre-diluted to 1 mg/ml. Assays are performed in sterile 16-well tissue culture slides, each well containing 100 μl of the compound dilutions together with 100 μl of macrophage/parasite inoculum (4×10^5 macrophages/ml and 1.2×10^6 parasites/ml). The inoculum is prepared in RPMI-1640 medium, supplemented with 10% heat inactivated fetal calf serum. […] After 96 hours of incubation, parasite growth is microscopically assessed after staining the cells with a 10% Giemsa solution. The results are expressed as IC50 calculated by linear regression analysis. […]

For series [7], the system named is human cell line (MRC-5). Briefly: Cytotoxicity assay on a human cell line (MRC-5). Format: cell-based. Conditions: read-out: Cytox.
Series [8] relates to T. brucei rhodesiense. Briefly: WHO screening against Trypanosoma brucei (Table 1). Format: cell-based. Conditions: read-out: IC50 T. brucei rhodesiense.
Description: as §1

Series [9] deals with T. cruzi. The series can be described thus: Screening against T. cruzi (Table 2). Format: cell-based, Trypanosoma cruzi.
Series [10] relates to L-6 mammalian cells. The series can be described thus: Cytotoxicity assay on L-6 mammalian cells. Format: cell-based.
The mark [11] stands for this setting: Trypanosoma brucei, RHODESIENSE

For the compound `CCN(CC)CCCC(C)Nc1ccnc2cc(Cl)ccc12` (stereo not shown) [Chloroquine], the values for the pIC50 in series [1] (Plasmodium falciparum) and in series [2] were 8.30 and 7.85, respectively.

As for `CC1CS(=O)(=O)CCN1/N=C/c1ccc([N+](=O)[O-])o1` (stereo not shown) [Nifurtimox], the pIC50 in series [3] (Trypanosoma cruzi) is 5.91.

With `Nc1nc(N)nc(Nc2ccc([As]3SCC(CO)S3)cc2)n1` (stereo not shown) [Melarsoprol], in [4] (patients, injected), the “patients treated killed outright” value is reported as 3–10%. Moreover, the “patients the drug fails to cure” value in series [4] (some areas of Africa (Omugo, Uganda; Ibba, South Sudan)) was 25–30%. This compound had a pIC50 in [5] (setting [11]) of 8.00.

For the compound `CCCCCCCCCCCCCCCCOP(=O)([O-])OCC[N+](C)(C)C` [Miltefosine], the pIC50 in series [6] (Leishmania donovani, Macrophage) is 6.33.

On to `O[C@@H]1[C@@H](O)[C@H](Sc2ccccc2)O[C@@H]2CO[C@@H](c3ccccc3)O[C@@H]12` [Compound A1], for which the pIC50 in series [3] was less than 4.49; in series [7], less than 4.49; in series [8] (Table 1, WHO screening), 6.73.

For the compound `OC1C(Cc2ccccc2)OC2COC(c3ccc(Cl)cc3)OC2C1O` (stereo not shown) [Compound A3], the pIC50 in [1] was less than 4.88; in series [9], 4.84; in [6], greater than 6.01; in series [10], 4.22; in series [5], 4.69.

Regarding `Cc1ccc(C(=O)Nc2ccc(S(=O)(=O)O)c3cc(S(=O)(=O)O)cc(S(=O)(=O)O)c23)cc1NC(=O)c1cccc(NC(=O)Nc2cccc(C(=O)Nc3cc(C(=O)Nc4ccc(S(=O)(=O)O)c5cc(S(=O)(=O)O)cc(S(=O)(=O)O)c45)ccc3C)c2)c1` [Suramin], in [8] (setting [11]), the pIC50 was 6.68.
